# Tests used:
# Assay in all cases: relative viability (nuclei count vs DMSO), 5 days (fraction); higher = more cells survive
# NCI-H1792 = tested on: NCI-H1792
# Summary of the method: (§1)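 One day after seeding in 1536-well plates, lung cancer cell lines were dosed by pin tool. Dosing was either single-drug or a fixed anchor-drug dose plus five library-drug doses (not always all listed) in √10 steps. After 5 days, nuclei were stained in one fix-and-stain step and counted on 4× images, and relative viability is the nuclei count of treated wells over that of vehicle wells, given as the median of duplicate plates.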
# NCI-H1915 = tested on: NCI-H1915
# Summary of the method: as §1
# NCI-H1944 = tested on: NCI-H1944
# Summary of the method: as §1
# NCI-H2023 = tested on: NCI-H2023
# Summary of the method: as §1
# NCI-H2087 = tested on: NCI-H2087
# Summary of the method: as §1
# NCI-H460 = tested on: NCI-H460
# Summary of the method: as §1
# NCI-H520 = tested on: NCI-H520
# Summary of the method: as §1
# NCI-H596 = tested on: NCI-H596
# Summary of the method: as §1
# NCI-H650 = tested on: NCI-H650
# Summary of the method: as §1
# NCI-H661 = tested on: NCI-H661
# Summary of the method: as §1
# NCI-H727 = tested on: NCI-H727
# Summary of the method: as §1
# PC-3 [JPC-3] = tested on: PC-3 [JPC-3]
# Summary of the method: as §1
compound,measurement,setting,value
COc1cc(N2CCC(C(N)=O)CC2)ccc1Nc1nc(N)c(Cl)c(Nc2ccccc2S(=O)(=O)C(C)C)n1 [HG-5-88-01] + CS(=O)(=O)CCNCc1ccc(-c2ccc3ncnc(Nc4ccc(OCc5cccc(F)c5)c(Cl)c4)c3c2)o1 [Lapatinib] (partner 2 µM),relative viability,NCI-H1792; first compound 0.4 µM,0.864
same,relative viability,NCI-H1792; first compound 1.265 µM,0.879
same,relative viability,NCI-H1792; first compound 4 µM,0.888
same,relative viability,NCI-H1915; first compound 0.04 µM,0.958
same,relative viability,NCI-H1915; first compound 0.1265 µM,1
same,relative viability,NCI-H1915; first compound 0.4 µM,0.977
same,relative viability,NCI-H1915; first compound 1.265 µM,1
same,relative viability,NCI-H1915; first compound 4 µM,0.698
same,relative viability,NCI-H1944; first compound 0.04 µM,0.656
same,relative viability,NCI-H1944; first compound 0.1265 µM,0.84
same,relative viability,NCI-H1944; first compound 0.4 µM,0.78
same,relative viability,NCI-H1944; first compound 1.265 µM,0.861
same,relative viability,NCI-H1944; first compound 4 µM,0.648
same,relative viability,NCI-H2023; first compound 0.04 µM,0.926
same,relative viability,NCI-H2023; first compound 0.1265 µM,1.32
same,relative viability,NCI-H2023; first compound 0.4 µM,0.573
same,relative viability,NCI-H2023; first compound 1.265 µM,0.708
same,relative viability,NCI-H2023; first compound 4 µM,0.335
same,relative viability,NCI-H2087; first compound 0.04 µM,1.01
same,relative viability,NCI-H2087; first compound 0.1265 µM,0.988
same,relative viability,NCI-H2087; first compound 0.4 µM,0.989
same,relative viability,NCI-H2087; first compound 1.265 µM,0.899
same,relative viability,NCI-H2087; first compound 4 µM,0.735
same,relative viability,NCI-H460; first compound 0.04 µM,0.963
same,relative viability,NCI-H460; first compound 0.1265 µM,0.981
same,relative viability,NCI-H460; first compound 0.4 µM,0.871
same,relative viability,NCI-H460; first compound 1.265 µM,0.996
same,relative viability,NCI-H460; first compound 4 µM,0.302
same,relative viability,NCI-H520; first compound 0.04 µM,0.825
same,relative viability,NCI-H520; first compound 0.1265 µM,0.896
same,relative viability,NCI-H520; first compound 0.4 µM,0.401
same,relative viability,NCI-H520; first compound 1.265 µM,0.813
same,relative viability,NCI-H520; first compound 4 µM,0.795
same,relative viability,NCI-H596; first compound 0.04 µM,0.956
same,relative viability,NCI-H596; first compound 0.1265 µM,1.03
same,relative viability,NCI-H596; first compound 0.4 µM,1.06
same,relative viability,NCI-H596; first compound 1.265 µM,1.12
same,relative viability,NCI-H596; first compound 4 µM,0.781
same,relative viability,NCI-H650; first compound 0.04 µM,0.962
same,relative viability,NCI-H650; first compound 0.1265 µM,1.01
same,relative viability,NCI-H650; first compound 0.4 µM,1.14
same,relative viability,NCI-H650; first compound 1.265 µM,0.943
same,relative viability,NCI-H650; first compound 4 µM,0.475
same,relative viability,NCI-H661; first compound 0.04 µM,0.505
same,relative viability,NCI-H661; first compound 0.1265 µM,0.518
same,relative viability,NCI-H661; first compound 0.4 µM,0.487
same,relative viability,NCI-H661; first compound 4 µM,0.542
same,relative viability,NCI-H727; first compound 0.04 µM,0.834
same,relative viability,NCI-H727; first compound 0.1265 µM,0.93
same,relative viability,NCI-H727; first compound 0.4 µM,0.669
same,relative viability,NCI-H727; first compound 1.265 µM,0.583
same,relative viability,NCI-H727; first compound 4 µM,0.39
same,relative viability,PC-3 [JPC-3]; first compound 0.04 µM,0.408
same,relative viability,PC-3 [JPC-3]; first compound 0.1265 µM,0.466
same,relative viability,PC-3 [JPC-3]; first compound 0.4 µM,0.39
same,relative viability,PC-3 [JPC-3]; first compound 1.265 µM,0.434
same,relative viability,PC-3 [JPC-3]; first compound 4 µM,0.25

# Source: the supplement of paper PMC10307832
